Assay results published in US20230355705A1, “DISCOVERY OF YEATS2 YEATS DOMAIN INHIBITORS AS NOVEL ANTI-CANCER AGENTS” (The University of Hong Kong, priority 2022, published 2023).
Non-standard residues stand in square brackets, D forms with d. Residues, ends and D or L forms follow the SMILES beside them. *: point of attachment. Benzofuran(2-CO) = O=C(c1cc2ccccc2o1)*; X1 = O=C(c1cc2ccc(Br)cc2o1)*; NMeA = CN[C@@H](C)C(=O)O; Ms = CS(=O)(=O)*

Molecular target: T1, YEATS2 YEATS domain (Homo sapiens, UniProt Q9ULM3)
T1 construct: 201-332 containing an N-terminal 10×His-SUMO tag was overexpressed in Escherichia coli BL21 (DE3); 10×His-SUMO (N, cleaved yes); made in house; host or cells: Escherichia coli BL21 (DE3)
T1 sequence (Q9ULM3 201-332 limits assumed): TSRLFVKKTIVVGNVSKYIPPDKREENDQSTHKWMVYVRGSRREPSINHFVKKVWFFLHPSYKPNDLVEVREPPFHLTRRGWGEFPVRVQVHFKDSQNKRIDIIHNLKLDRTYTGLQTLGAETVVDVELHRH
Test: competitive photo-cross-linking assay
Type: binding
Description: The probes in the absence or presence of different concentrations of competitors were incubated with recombinant proteins (5 or 20 ng/µL) in binding buffer (50 mM HEPES, 150 mM NaCl, 2 mM MgCl2, 0.1% Tween-20, 20% glycerol, pH 7.5, with 50 ng/µL BSA) for 10 min at 4° C. Then, the samples were irradiated at 365 nm using UV lamp for 20 min in 96-well on ice.
To the prepared photo-cross-linking samples, we added 100 µM rhodamine-N3 for in-gel fluorescence (10 mM stock in DMSO), followed by 1 mM TCEP (freshly prepared 50 mM stock in H2O) and 100 µM TBTA (10 mM stock in DMSO); finally, the reactions were initiated by the addition of 1 mM CuSO4 (freshly prepared 50 mM stock in H2O). The reactions were incubated for 1 h at room temperature (22 to 25° C.) with regular vortexing. The reactions were quenched by adding 5 volumes of ice-cold acetone and placed at — 20° C. overnight to precipitate proteins.
Samples after protein precipitation were centrifuged at 13,000 × g for 5 min at 4° C. The supernatant was discarded, and the pellet was washed with ice-cooled acetone and air-dried for 10 min. The proteins were resuspended in 1 × LDS sample loading buffer (Invitrogen, Waltham, MA) with 50 mM DTT and heated at 95° C. for 8 min. Samples were then resolved by SDS-PAGE. […]
YEATS domain of YEATS2 is newly identified as histone benzoylation reader. […]

inhibitory activity / potency against YEATS2 YEATS (in words)	IC50 (Table 2) [nM]	Compound
maintained the inhibitory activity		C[C@@H](C(=O)N1CCC[C@H]1C(N)=O)N(C)C(=O)[C@H](CO)NC(=O)[C@H](CCCCNC(=O)c1cc2ccc(Br)cc2o1)NS(C)(=O)=O [HC18] (Ms-K(X1)S[NMeA]P-NH2)
	600	C[C@H](NC(=O)[C@H](CO)NC(=O)[C@H](CCCCNC(=O)c1cc2ccccc2o1)NS(C)(=O)=O)C(=O)N1CCC[C@H]1C(N)=O [MsKSAP] (Ms-K(Benzofuran(2-CO))SAP-NH2)
